Experiment: xn = mol fraction of the nth substance listed
Details: Liquid, Vibrating tube method

CCOC(=O)OCC [diethyl carbonate] + Cc1ccc(C)cc1
mass density [kg/m3]
Details | 100 kPa | 5000 kPa | 10000 kPa | 20000 kPa | 30000 kPa | 40000 kPa
298.15 K, x1 = 0.1014 | – | – | – | 882 | 888.2 | 894.3
298.15 K, x1 = 0.1346 | – | – | – | 885.9 | 892.3 | 898.4
298.15 K, x1 = 0.1949 | – | – | – | 892.7 | 899.3 | 905.3
298.15 K, x1 = 0.2767 | – | – | – | 902.5 | 909.1 | 915.3
298.15 K, x1 = 0.386 | – | – | – | 915 | 921.9 | 928.2
298.15 K, x1 = 0.4858 | – | – | – | 926.3 | 933.2 | 939.6
298.15 K, x1 = 0.5444 | – | – | – | 933.2 | 940.2 | 946.6
298.15 K, x1 = 0.5923 | – | – | – | 938.5 | 945.8 | 952.3
298.15 K, x1 = 0.6718 | – | – | – | 947.8 | 955.1 | 961.8
298.15 K, x1 = 0.7676 | – | – | – | 959 | 966.3 | 973.1
298.15 K, x1 = 0.8313 | – | – | – | 966.4 | 973.8 | 980.8
298.15 K, x1 = 0.9044 | – | – | – | 974.7 | 982.2 | 989.1
308.15 K, x1 = 0.1014 | 858.7 | 862.8 | 866.6 | 873.8 | 880.4 | 886.6
308.15 K, x1 = 0.1346 | 862.5 | 866.7 | 870.4 | 877.7 | 884.5 | 890.8
308.15 K, x1 = 0.1949 | 868.9 | 873 | 876.5 | 884.2 | 891.1 | 897.5
308.15 K, x1 = 0.2767 | 878.2 | 882.4 | 886.5 | 893.8 | 900.8 | 907.3
308.15 K, x1 = 0.386 | 890.1 | 894.5 | 898.5 | 906.2 | 913.3 | 919.9
308.15 K, x1 = 0.4858 | 900.7 | 905.2 | 909.2 | 917.2 | 924.5 | 931.2
308.15 K, x1 = 0.5444 | 907.2 | 911.7 | 916 | 923.9 | 931.3 | 938.1
308.15 K, x1 = 0.5923 | 912.6 | 916.9 | 921.4 | 929.4 | 936.8 | 943.7
308.15 K, x1 = 0.6718 | 921.3 | 925.7 | 930.3 | 938.4 | 945.9 | 952.9
308.15 K, x1 = 0.7676 | 931.8 | 936.5 | 940.9 | 949.2 | 957 | 964.1
308.15 K, x1 = 0.8313 | 939 | 943.6 | 948.1 | 956.6 | 964.2 | 971.6
308.15 K, x1 = 0.9044 | 946.7 | 951.5 | 956.2 | 964.5 | 972.6 | 979.9

From the NIST ThermoML archive (doi:10.1016/j.jct.2013.09.039)
